Assay results reported in publication PMC4745082, “A Novel PET Imaging Probe for the Detection and Monitoring of Translocator Protein 18 kDa Expression in Pathological Disorders” (Scientific Reports, 2016).

Tested on: human glioblastoma U87-MG xenografts
Set-up: species or system mice
Settings: mouse, in vivo
Description: Another in vivo test of [^18F]CB251 was performed in U87-MG-bearing mice using a microPET scanner (Fig. 6). Tumour cells were engrafted on the left thigh of Balb/c nude mice. [^18F]CB251 was administered intravenously after the tumour volume reached approximately 364.5 ± 32.2 mm^3 and a dynamic PET scan was performed. […] In particular, [^18F]CB251 provided a tumour accumulation (1.96 ± 0.11%ID/g at 1 h post injection) and a visible image of the tumour in summed PET images.
U87-MG cells (ATCC) were cultured in Dulbecco’s modified Eagle’s medium supplemented with 4 mM L-glutamine, 4,500 mg/L glucose, 1 mM sodium pyruvate, […] sodium bicarbonate, 10% FBS and antibiotic-antimycotic (Gibco, Grand Island, NY, USA) at 37 °C in a humidified atmosphere of 5% CO2. U87-MG cells were cultured for 2–3 days without changing the medium and were harvested with trypsin-EDTA in PBS. Male Balb/c nu/nu mice, obtained at 6–7 weeks of age (Orient Bio Inc., Seongnam, Korea), were subcutaneously injected in the right shoulder with 5 × 10^6 U87-MG cells suspended in 100 μL of 100 mM PBS (pH 7.4). Animal protocols were approved by the Seoul National University Bundang Hospital Animal Care and Use Committee and the methods were carried out in accordance with the approved guidelines. We also performed calliper measurements of the longest perpendicular tumour diameters.
Five LPS-induced neuroinflammation rats (219.2 ± 14.1 g) were used for brain PET imaging at 4 days post-LPS injection. Before the scan, the rats were anesthetized with 2% isoflurane in a 7:3 mixture of N2/O2. PET imaging of the rat brain was performed in a dedicated small animal PET/CT (NanoPET/CT, Bioscan, Inc., U.S.A.) with a 10-cm axial field-of-view (FOV) and a 12-cm transaxial FOV. […] Regional uptake of radioactivity was decay-corrected to the injection time and was expressed as the standardized uptake value (SUV), which was normalized to the injected radioactivity and animal body weight. […]

Question: What does the source list for `CCCN(CCC)C(=O)Cc1c(-c2ccc(OCC[18F])cc2)nc2c(Cl)cc(Cl)cn12` [[^18F]CB251, 2-(2-(4-(2-[^18F]fluoroethoxy)phenyl)-6,8-dichloroimidazo[1,2-a]pyridin-3-yl)-N,N-dipropylacetamide]?
Answer: tumour uptake (male, Balb/c nu/nu, 1 h): 1.96 ± 0.11 %ID/g; bladder and muscle uptake: low; kidney uptake: high
